Results from patent US20110287045A1, “Enhanced immune response against infections” (priority 2010, published 2011).
“Also recorded” adds a separate entry of the source.

Key:
platelets = experiment: Inhibitor pre-treatment before agonist-induced platelet activation (flow cytometry); format: cell-based; conditions: for inhibition of CCL5-induced platelet activation / inhibition of Tat-induced platelet activation: pre-treatment 37° C. 30 minutes, SB328437 3 nM, EGTA 100 μM, PGE1 5 μM; for inhibition of CCL5-induced platelet activation: CCL5 10 μg/ml; for inhibition of Tat-induced platelet activation: Tat 20 ng/ml
Method: (§1) Gel-filtered human or mouse platelets were prepared from platelet-rich plasma obtained from blood collected in 0.38% sodium citrate via heart puncture. 1×10^7gel-filtered platelets were incubated under different stimulation conditions at 37° C. for 30 minutes. For in vitro platelet activation, Tat 20 ng/ml, CCL5 10 μg/ml, or control Ad18-66 20 ng/ml were used. To test the role of chemokine receptor CCR3, calcium flux and cAMP in Tat-induced platelet activation, CCR3 inhibitor SB328437 3 nM, calcium flux inhibitor EGTA 100 μM and prostaglandin E1 (PGE1, a cAMP elevator) 5 μM were used separately to treat platelets at 37° C. for 30 minutes before incubation with Tat, CCL5 or control as above. To test the role of β3 integrin, platelets from β3 integrin knock out mice were incubated with Tat, CCL5, thrombin, and control. Treated platelets were then stained with anti-CD154-FITC and anti-CD62P-PE antibody on ice for one hour. Fluorescent-labeled platelets were measured by flow cytometry (FACScan, Becton-Dickinson, Calif.).

integrin αVβ3 = integrin αVβ3 (Homo sapiens, UniProt P05106+P06756); conditions: read-out: dissociation constants (Kd), integrin αVβ3; cited from earlier work
Chain of integrin αVβ3 (P06756 31-889 limits assumed): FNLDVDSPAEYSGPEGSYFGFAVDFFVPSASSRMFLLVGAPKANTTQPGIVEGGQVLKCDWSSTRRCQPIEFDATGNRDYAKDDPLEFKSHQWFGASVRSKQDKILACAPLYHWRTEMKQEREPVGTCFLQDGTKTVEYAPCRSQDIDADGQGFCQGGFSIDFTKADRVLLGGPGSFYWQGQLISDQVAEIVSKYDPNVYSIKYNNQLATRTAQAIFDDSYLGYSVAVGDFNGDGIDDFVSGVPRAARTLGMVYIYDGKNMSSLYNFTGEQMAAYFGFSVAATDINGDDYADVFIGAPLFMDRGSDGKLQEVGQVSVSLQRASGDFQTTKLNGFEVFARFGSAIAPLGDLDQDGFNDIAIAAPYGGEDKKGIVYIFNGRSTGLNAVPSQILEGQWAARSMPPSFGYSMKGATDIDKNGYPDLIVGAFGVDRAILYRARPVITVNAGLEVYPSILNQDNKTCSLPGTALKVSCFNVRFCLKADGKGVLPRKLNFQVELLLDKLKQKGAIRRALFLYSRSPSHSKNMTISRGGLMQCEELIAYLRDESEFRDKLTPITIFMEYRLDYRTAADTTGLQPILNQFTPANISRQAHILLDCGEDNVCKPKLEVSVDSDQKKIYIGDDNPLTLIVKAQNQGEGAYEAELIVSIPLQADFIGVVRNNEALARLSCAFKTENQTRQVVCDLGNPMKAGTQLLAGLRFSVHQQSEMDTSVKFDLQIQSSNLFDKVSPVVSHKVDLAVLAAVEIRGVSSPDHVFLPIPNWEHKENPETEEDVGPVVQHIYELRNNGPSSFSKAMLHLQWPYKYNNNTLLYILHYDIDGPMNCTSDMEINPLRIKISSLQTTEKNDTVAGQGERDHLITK
Chain of integrin αVβ3 (P06756 891-1048 partner limits assumed): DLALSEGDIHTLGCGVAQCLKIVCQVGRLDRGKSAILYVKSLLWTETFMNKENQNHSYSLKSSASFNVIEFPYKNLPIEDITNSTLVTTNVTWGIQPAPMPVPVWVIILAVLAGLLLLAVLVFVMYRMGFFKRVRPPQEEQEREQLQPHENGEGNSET
Chain of integrin αVβ3 (P05106 27-788): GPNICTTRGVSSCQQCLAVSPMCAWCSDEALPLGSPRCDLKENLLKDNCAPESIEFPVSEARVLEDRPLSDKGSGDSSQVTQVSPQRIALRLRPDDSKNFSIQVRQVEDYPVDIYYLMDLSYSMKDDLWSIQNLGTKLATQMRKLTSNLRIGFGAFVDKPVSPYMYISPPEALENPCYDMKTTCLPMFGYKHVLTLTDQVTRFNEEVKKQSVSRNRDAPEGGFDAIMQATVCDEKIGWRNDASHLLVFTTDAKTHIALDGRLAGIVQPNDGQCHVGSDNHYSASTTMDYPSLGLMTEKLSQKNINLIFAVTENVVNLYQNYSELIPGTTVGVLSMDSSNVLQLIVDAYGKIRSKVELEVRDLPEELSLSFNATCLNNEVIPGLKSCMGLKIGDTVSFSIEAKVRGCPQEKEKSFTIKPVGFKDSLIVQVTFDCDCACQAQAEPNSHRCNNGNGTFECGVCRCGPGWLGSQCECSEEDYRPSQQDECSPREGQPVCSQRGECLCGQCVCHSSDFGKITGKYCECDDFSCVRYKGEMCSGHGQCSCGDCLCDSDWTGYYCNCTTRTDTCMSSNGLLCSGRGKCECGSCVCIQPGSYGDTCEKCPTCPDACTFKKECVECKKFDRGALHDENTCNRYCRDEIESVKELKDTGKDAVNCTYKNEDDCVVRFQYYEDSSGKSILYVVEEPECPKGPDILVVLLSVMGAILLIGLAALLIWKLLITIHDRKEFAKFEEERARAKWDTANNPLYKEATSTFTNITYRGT

[1] = tested on: platelets from integrin β3 knockout mice; experiment: Flow cytometry assay of platelet activation, platelets from integrin β3 knockout mice; format: cell-based, mouse; conditions: β3−/− gel-filtered platelets
Method: as §1

Row | Compound | inhibition of CCL5-induced platelet activation (platelets) | inhibition of Tat-induced platelet activation (platelets) | Kd (integrin αVβ3) [nM] | also measured
1 | O=C(O)CN(CCOCCOCCN(CC(=O)O)CC(=O)O)CC(=O)O [EGTA] | completely inhibited; also recorded: completely blocks | completely inhibited |  | 
2 | CCCCC[C@H](O)/C=C/[C@H]1[C@H](O)CC(=O)[C@@H]1CCCCCCC(=O)O [PGE1, prostaglandin E1] | partially inhibited | No significant inhibition |  | inhibition of CCL5-induced platelet activation (platelets; listed as prostaglandin E1 (PGE1)): partially blocks
3 | COC(=O)[C@H](Cc1ccc([N+](=O)[O-])cc1)NC(=O)c1cccc2ccccc12 [SB328437] | completely inhibited | completely inhibited |  | inhibition of thrombin-induced platelet activation (platelets; SB328437 pre-treatment, FIG. 9 in β3−/− platelets): did not inhibit; also recorded: do not inhibit
4 | fibrinogen |  |  | 27 | 
5 | thrombin |  |  |  | platelet activation in integrin β3 deficient mouse platelets [1]: still induces platelet activation
6 | vitronectin: integrin αVβ3 ligand, literature comparator |  |  | 64 | 
